For test [1], the system named is 3T3 A31-714 Clone 4 cells. Kind of test: Cell growth promoting activity using 3T3 cells (3H-thymidine uptake), Example 25. It counts as cell-based, mouse. The conditions noted are these: 3H-thymidine uptake into 3T3 A31-714 Clone 4; 100% is the maximum uptake of the 80-residue betacellulin. As for the experimental part: The cell growth promoting activity was assayed by means of the ^3H-thymidine uptake into stationary 3T3 A31-714 Clone 4 (International Journal of Cancer, 12:463 (1973)) as described in Molecular Cell Biology, 8:588 (1988).
100 μL 3T3 A31-714 Clone 4 suspended to 1000 cells/mL using Dulbecco's modified Eagle MEM medium containing 5% bovine serum were seeded to 96 well plates and cultured for a day at 37° C. in carbon dioxide gas incubators (5% carbon dioxide gas, 95% air). 75 μL of supernatant was taken, and 100 μL of serum-free Dulbecco's modified Eagle MEM medium was added to adjust the serum concentration to 1%. Two more days of culture was followed by the addition of varying concentrations of the hBTC50, Mutein A, or Mutein B prepared in the above examples. 16 hours after these had been added, ^3H-thymidine (Amersham Pharmacia Biotech) was added in an amount of 0.25 μCi/well, after 4 hours the cells were washed 3 times with PBS, 100 μL of 5% SDS was added, and the cells were lysed. The cell lysate was transferred to scintillation vials, 1 mL of Scintillator A (Wako Pure Chemicals) was added, and the uptake of ^3H-thymidine into the cellwas assayed with a scintillation counter.

Another test concerns AR42J cells. In words: β cell differentiation promoting activity using AR42J cells (anti-insulin immunofluorescence), Example 26. It counts as cell-based. The note with it: 5 days incubation; for Differentiation into insulin-producing β cells (stained cells under fluorescent microscope): anti-insulin antibody/FITC staining; for Incidence of insulin-producing cells: comparison between the proteins. As for the experimental part:
Cells of the AR42J cell line derived from pancreatic cancer induced by chemical carcinogens (Christophe, Am. J. Physiol., 266: G963 (1994)) were suspended to a concentration of 10^5 cells/mL in Dulbecco's modified Eagle MEM medium containing 10% fetal calf serum and one of hBTC50, Mutein A, Mutein B, or the 80-residue betacellulin (hBTC80) prepared in accordance with the method in Japanese Unexamined Patent Application (Kokai) H10-191989. 500 μL of these suspensions was inoculated on chamber slides and incubated for 5 days at 37° C. in carbon dioxide gas incubators (5% carbon dioxide gas, 95% air). After 5 days, the cells were washed once with PBS, fixed in 10% formaldehyde, and treated for 5 min with 0.1% Triton X-100. Block Ace (Snow Brand, Japan) was then added for 40 minutes of blocking at room temperature. Anti-insulin antibodies (by Advanced Immunochemicals) diluted with 10% Block Ace were added, and reacted for 40 minutes at room temperature. 0.1% Triton X-100 was added, the reaction solution was allowed to stand for 5 minutes at room temperature, and the cells were then washed three times with PBS. FITC (fluorescein isothiocyanate) labeled anti-mouse IgG antibodies (Cappel) diluted with 10% Block Ace were added, and a reaction was brought about for 40 minutes. 0.1% Triton X-100 was added, the reaction solution was allowed to stand for 5 minutes, the cells were then washed three times with PBS, and they were then observed under a fluorescent microscope.

Test [2] relates to PLAP expression AR42J cells. Kind of test: β cell differentiation promoting activity using PLAP expression AR42J cells (AR71-104 clone), Example 27. Type of test: cell-based. The note with it: 5 days, A405, 100% is the maximum absorbance when hBTC50 was added. As for the experimental part:
The differentiation promoting activity into β cells was also determined using AR42J cells transformed with the vector having alkaline phosphatase which had been ligated as a reporter downstream of the insulin promoter. Specifically, cells which have differentiated into β cells by addition of betacellulin produce alkaline phosphatase. As a result, by assaying the alkaline phosphatase activity, the differentiation promoting activity into β cells can be quantitatively assayed.
Cells of each clone were seeded on 24-well plates and cultured for 4 days with and without the addition of 20 ng/mL 80-residue BTC, the supernatant was collected and heat treated for 30 minutes at 65° C., and the alkaline phosphatase activity in the media was then assayed. Clones showing increased alkaline phosphatase activity with the addition of 80-residue betacellulin were selected. The AR71-104 clone was used below.
PLAP expression AR42J cells constructed in 3-2) were suspended to a concentration of 3×10^4 cells/mL in Dulbecco's modified Eagle MEM medium containing 10% fetal calf serum and on of varying concentrations of the hBTC50 or Mutein A or B prepared above. […] The samples were held for 10 minutes at 37° C., and 10 μL of 20 mg/mL p-nitrophenylphosphoric acid (Sigma) was added, a reaction was brought about for 16 hours at 37° C., and the absorbance at 405 nm (A405) was determined.

No end group written: not given here.

On to “Mutein A: hBTC50 with 3 amino acids (Asn, Pro, Ser) of the heregulin sequence inserted between Cys3-Cys4; SEQ ID NO: 44 (RKGHFSRCPKQYKHYCIKGRCRFVVAEQNPSTPSCVCDEGYIGARCERVDLFY; ends and bridges not checked; cysteine pairing not given here)”, for which the “cell growth promoting activity ED50” value in test [1] stood at 0.6 nM. Also, in the test with AR42J cells, the “Differentiation into insulin-producing β cells (stained cells under fluorescent microscope)” value is listed as “cells which had differentiated into insulin-producing β cells, were found” and the “Incidence of insulin-producing cells” value is “no differences in the incidence of insulin-producing cells”. Moreover, the “activity inducing differentiation to β cells ED50” value in test [2] turned out to be 0.5 nM.
Regarding “Mutein B: hBTC50 in which seven N terminal residues were substituted with five corresponding EGF residues; SEQ ID NO: 45 (NSDSECPKQYKHYCIKGRCRFVVAEQTPSCVCDEGYIGARCERVDLFY; ends and bridges not checked; cysteine pairing not given here)”, the “cell growth promoting activity ED50” value in test [1] was over 10.0 nM. Moreover, in the test with AR42J cells, the “Differentiation into insulin-producing β cells (stained cells under fluorescent microscope)” value was “cells which had differentiated into insulin-producing β cells, were found” and the “Incidence of insulin-producing cells” value was “no differences in the incidence of insulin-producing cells”. In test [2], the “activity inducing differentiation to β cells ED50” value is 0.7 nM.

For the origin of these results see patent publication US6825165B1, “Betacellulin modification” (Takeda Chemical Industries, Ltd., priority 1998, dated 2004).
